According to patent US20160310589A1, “Glucopyranosyl Lipid A and Allergen Formulations For Sublingual Administration” (Sanofi, priority 2015, published 2016):

How the values were obtained:
[1] = test system: Ova-specific OT-II TcR transgenic T cells; experiment: Antigen-specific OT-II T cell proliferation after sublingual administration (cell-tracker dye, flow cytometry); assay type: in vivo, mice; conditions: GLA 0.2 μg, OVa323-339 peptide 10 μg, four days later (FIGS. 4A, 4C, 4E)
Protocol: Ova-specific OT-II TcR transgenic T cells were labeled with cell-tracker violet dye and adoptively transferred into syngeneic wild type mice. Mice then received sublingual administration of GLA (0.2 μg) alone (FIGS. 4A and 4B), OVa323-339 peptide (10 μg) alone (FIGS. 4C and 4D), or GLA co-administered with Ova peptide (FIGS. 4E and 4F). Four days later, the draining cervical lymph nodes (FIGS. 4A, 4C, and 4E) and spleen (FIGS. 4B, 4D, and 4F) were removed and OT-II T cell proliferation (via the decrease in cell-tracker dye fluorescence) was measured by flow cytometry.
Methods. Sublingual administration was performed as described above in Example 1.
Formulations of Ova peptide and/or GLA included methylcellulose as described in Example 1. Mixtures of methylcellulose+Ova peptide, and methylcellulose+Ova peptide+GLA were prepared the day before dosing.
Ova-specific OT-II TcR transgenic T cells were labeled with cell-tracker violet dye and adoptively transferred into syngeneic wild type mice. Mice then received sublingual administration of GLA (0.2 μg, 0.02 μg or 0.002 μg) co-administered with OVa323-339 peptide or peptide without GLA (0 mg). Four days later, cervical lymph nodes were removed and OT-II T cell proliferation (via the decrease in cell-tracker dye fluorescence) was measured by flow cytometry.

IL-6 = test system: IL-6
Protocol: GLA was formulated in DPPC (1,2-dipalmitoyl-sn-glycero-3-phosphocholine) as GLA:DPPC 1:2 (M:M) in Millipore (sterile) water. Animals were sedated with ketamine (5 mg/kg to 10 mg/kg)/dexmedetomidine (0.01 mg/kg to 0.016 mg/kg), IM (intramuscularly), while in their cage. Once sedated, they were brought into the laboratory and placed onto a circulating water heating pad (Gaymar). Sublingual (right side) and left cheek pouch mucosal brushings were taken 15 minutes prior to dosing using Copan FLOQSwabs™ and placed into RLT buffer (QIAmp Minikit Plus, Qiagen), vortexed and immediately frozen on dry ice. Sublingual dosing of GLA (100 μl dosed via syringe) was performed under the right side of the animals tongue and allowed to absorb into the mucosa for three minutes. Further sublingual and cheek brushings were obtained at 6 hr, 24 hr and 48 hr post dosing.
RNA processing was performed from the cheek and sublingual swabs using a QIAmp Minikit Plus (Qiagen) which includes a gDNA (genomic DNA) eliminator column. Gene expression was quantified using the Comparative CT Method, which calculates the relative gene expression quantitation between a target gene and an endogenous control. All target genes were quantitated relative to the expression of the housekeeping gene ARL1. Using the relative expression, the fold of baseline expression was calculated as [(Relative gene expression at time point of interest)/(Baseline relative gene expression)].

[2] = six hours after sublingual administration

| Compound | antigen-specific T cell proliferation in the draining cervical lymph nodes [1] | IL-6 expression 24 hours after sublingual administration (IL-6; 24 hours after sublingual administration) | duration of local action within the oral cavity (IL-6; current formulation GLA:DPPC 1:2, sublingual) [days] | IL-6 in brushings from the cheek (IL-6; [2]) | IL-6 in the blood (IL-6; [2]) | IL-6 expression in sublingual mucosal brushings (IL-6; six hours after sublingual administration, 3 different doses of GLA) |
| --- | --- | --- | --- | --- | --- | --- |
| CCCCCCCCCCCCCC(=O)O[C@H](CCCCCCCCCCC)CC(=O)O[C@@H]1[C@@H](NC(=O)C[C@H](CCCCCCCCCCC)OC(=O)CCCCCCCCCCCCC)[C@H](OC[C@H]2O[C@H](O)[C@H](NC(=O)C[C@H](O)CCCCCCCCCCC)[C@@H](OC(=O)C[C@H](O)CCCCCCCCCCC)[C@@H]2O)O[C@H](CO)[C@H]1OP(=O)(O)O [GLA, Glucopyranosyl Lipid A] | not | not detected | ≤ 1 | not detected | not detected | dose-dependent expression of IL-6 |
| OVa323-339 peptide: Ova peptide antigen recognised by OT-II TcR transgenic T cells (KISQAVHAAHAEINEAG; UniProt P01012 323-339, looked up, fragment) | not |  |  |  |  |  |
